From article PMC4140803 (PLoS ONE, 2014) come the findings set out here.

Read-outs that look alike come from different tables or passages of the source.

For one data set, the system named is HIV-1KM018. Put plainly: Anti-HIV activity in vitro, PBMC. In kind it is cell-based. The following applies: for EC50: read-out: EC50s. As to the method:
(§1) C8166 cells were infected with different HIV-1 or HIV-2 laboratory strains and resistant strains at different serial concentration compounds with multiplicity of infection (MOI) of 0.075∼0.6. PHA-stimulated PBMCs were incubated with different clinical strains in RPMI-1640 (with 10% FBS, 50 U/ml IL-2 and 2 µg/ml polybrene) at MOI of 0.1. After infection at 37°C in 5% CO2 for 2 hours, C8166 cells were washed three times to remove free viruses and re-suspended by RPMI-1640 (with 10% FBS). 100 µl 4×10^4 cells (5×10^5 cells for PBMC) were seeded each well in a 96-well plate with gradient concentration of FNC. The plate was placed in a humidified incubator at 37°C, 5% CO2. 3TC and AZT were used as control. After incubation of 3–7 days, the percentage inhibition of syncytia formation was scored or the level of p24 was measured by ELISA [19] and 50% effective concentration (EC50) were calculated.

A further data set concerns FNCP-21 HIV-1 IIIB. Briefly: Phenotypic analysis of resistant variants in C8166. In kind it is cell-based. The following applies: for FC, fold change, the ratio of EC50(Mut)/EC50(WT): FNCP-21 HIV-1 IIIB vs wild type HIV-1IIIB; for EC50: Human immunodeficiency virus 1, C8166, FNC-selected HIV-1IIIB at P-21.
The test system of a further data set is Wild type HIV-1IIIB. Briefly: Anti-HIV activity / phenotypic analysis in C8166. The following applies: for EC50: Human immunodeficiency virus 1, C8166, wild type HIV-1IIIB; for FC, fold change, the ratio of EC50(Mut)/EC50(WT): wild type HIV-1IIIB (reference). In kind it is cell-based.
The subject of a further data set is 3TCP-21 HIV-1IIIB. Put plainly: Phenotypic analysis of resistant variants in C8166. In kind it is cell-based. The following applies: for FC, fold change, the ratio of EC50(Mut)/EC50(WT): 3TCP-21 HIV-1IIIB vs wild type HIV-1IIIB; for EC50: Human immunodeficiency virus 1, C8166, 3TC-selected HIV-1IIIB at P-21.
The next data set deals with C8166 cells. The data set is classed as cell-based, human. The protocol:
(§2) Cytotoxicity was assayed by MTT colorimetric reduction as previously described, [18]. Briefly, a serial concentration of FNC was added to a 96-well plate, followed by 100 µl 4×10^4 C8166 cells (5×10^5 cells for PBMC). After incubation at 37°C, 5% CO2 for 3 days (7 days for PBMCs), 20 µl MTT was added each well. After incubation for 4 hours, 100 µl supernatant was removed and 100 µl 20%SDS-50%DMF was added. The plate was incubated at 37°C overnight. The optical absorbance was measured by ELISA reader (ELx800, Bio-Tek, VT, USA) at 570 nm and 630 nm, and 50% cytotoxicity concentration (CC50) was calculated. 3TC and AZT were used as control.

The next data set relates to PBMC. The data set is classed as cell-based, human. The protocol:
C8166 cells were kindly donated by the Medical Research Council (MRC), the AIDS Reagent Project, U.K, and were maintained in RPMI-1640 with 10% FBS in humidified incubator with 5% CO2 at 37°C [16]. Peripheral blood mononuclear cells (PBMCs) were isolated from healthy donors by Ficoll-Hypaque density gradient centrifugation as described by the manufacturer’s instructions (Ethical Approval Number: SWYX-2011016). PBMCs were stimulated with 10% FBS, 5 µg/ml PHA and 50 U/ml IL-2 for three days before experiments.
as §2

Another data set relates to HIV-1_74V. Put plainly: Anti-HIV activity in vitro, C8166. The data set is classed as cell-based. To be noted: Human immunodeficiency virus 1, subtype B, NRTI-resistant. As to the method:
as §1

A further data set has as its system HIV-2CBL-20. Briefly: Anti-HIV activity in vitro, C8166. The data set is classed as cell-based. The following applies: Human immunodeficiency virus 2; C8166, HIV-2CBL-20, subtype A. As to the method: as §1
The subject of a further data set is HIV-2ROD. Briefly: Anti-HIV activity in vitro, C8166. The following applies: Human immunodeficiency virus 2, subtype A. In kind it is cell-based. The protocol:
as §1

Another data set deals with HIV-1RF. Briefly: Anti-HIV activity in vitro, C8166. In kind it is cell-based. To be noted: Human immunodeficiency virus 1, subtype B. As to the method:
as §1

In the next data set the test system is HIV-1WAN T69N. Briefly: microbe, parasite or virus in culture. In kind it is cell-based. To be noted: for EC50: Human immunodeficiency virus 1, PBMC, HIV-1WAN T69N, CRF01AE, clinical strain.
The subject of data set [1] is HIV-1L10R/M46I/L63P/V82T/I84V. Put plainly: microbe, parasite or virus in culture. The data set is classed as cell-based. The following applies: Human immunodeficiency virus 1, C8166, read-out: EC50s.
For the next data set, the system named is HIV-1TC-1. Put plainly: Anti-HIV activity in vitro, PBMC. The data set is classed as cell-based. To be noted: Human immunodeficiency virus 1, HIV-1TC-1, CRF01AE, clinical strain. The protocol: as §1
The test system of data set [2] is HIV-1IIIB. Briefly: Selection of drug-resistant HIV-1 variants and genotypic resistance assay. The data set is classed as cell-based.
For data set [3], the system named is pNL4-3 gp41 (36G) V38A/N42T. In kind it is cell-based, HIV-1. To be noted: C8166, pNL4-3 gp41 (36G) V38A/N42T, subtype B, FI-resistant.
Data set [4] has as its system HIV-1. Put plainly: Anti-HIV activity in vitro, summary over HIV-1 strains. In kind it is cell-based. The following applies: Human immunodeficiency virus 1. The protocol:
as §1

Data set [5] has as its system HIV-1. Briefly: Activity assay with 50% human serum in C8166. The data set is classed as cell-based. The following applies: C8166, 50% human serum, data not shown.
The test system of another data set is HIV-2. Put plainly: Anti-HIV activity in vitro, summary over HIV-2 strains. In kind it is cell-based. The following applies: Human immunodeficiency virus 2; range over HIV-2 strains; read-out: EC50s on HIV-2. The protocol: as §1
The test system of data set [6] is HIV-1IIIB. Briefly: Quantification of HIV-1 DNA species by real-time quantitative PCR. The following applies: HIV-1IIIB infected C8166, 2 nM FNC or 2 µM 3TC.
Where [7] appears, read: Human immunodeficiency virus 1, PBMC, HIV-1KM018, B/C recombinant, clinical strain.

Turning to `Cc1cn([C@H]2C[C@H](N=[N+]=[N-])[C@@H](CO)O2)c(=O)[nH]c1=O` [AZT, zidovudine], the EC50 in the data set on HIV-1KM018 (Human immunodeficiency virus 1, PBMC) came out at 0.478 ± 0.0455 µM; in the data set on FNCP-21 HIV-1 IIIB, 0.0123 ± 0.00024 µM; with Wild type HIV-1IIIB, 0.00939 ± 0.00122 µM; in the data set with 3TCP-21 HIV-1IIIB it was 0.0131 ± 0.00243 µM. The entries for the “FC, fold change, the ratio of EC50(Mut)/EC50(WT)” value in the data set with FNCP-21 HIV-1 IIIB, in the data set with Wild type HIV-1IIIB and in the data set on 3TCP-21 HIV-1IIIB were 1.31, 1 and 1.40, respectively. The CC50s in the data set with C8166 cells (human) was 5090 ± 260 µM; in the data set on PBMC (human), 845.31 ± 66.23 µM.
What is called inhibition is the relative decrease from the control value, in per cent. Low values mean a weak effect, high ones a strong effect. As for `Nc1ccn([C@@H]2CS[C@H](CO)O2)c(=O)n1` [3TC, lamivudine, reference compound], the EC50 came to 0.243 ± 0.0101 µM in the data set with HIV-1_74V; 319 ± 29.8 nM in the data set with HIV-2CBL-20; 257 ± 43.6 nM with HIV-2ROD; 350 ± 206 nM in the data set on HIV-1RF; 0.0865 ± 0.011 µM with HIV-1WAN T69N; 0.416 ± 0.0118 µM in [1]. The EC50 with HIV-1KM018 (setting [7]) was determined as 0.34 ± 0.0122 µM; in the data set on HIV-1TC-1, 0.0517 ± 0.00308 µM; in the data set with FNCP-21 HIV-1 IIIB it was 124 µM; in the data set with Wild type HIV-1IIIB, 0.202 ± 0.0341 µM; in the data set on 3TCP-21 HIV-1IIIB, 690 µM; in [3], 0.386 ± 0.0362 µM. Moreover, the inhibition at 1 µM in the data set on HIV-1IIIB [2] (Human immunodeficiency virus 1, C8166) was > 99%. Moreover, the CC50s in the data set with C8166 cells (C8166 cells, MTT, 3 days) came to 930 ± 190 µM; with PBMC (PBMC, MTT, 7 days), 825.98 ± 30.52 µM.
Consider `[N-]=[N+]=N[C@]1(CO)O[C@@H](n2ccc(N)nc2=O)[C@@H](F)[C@@H]1O` [FNC, 2′-deoxy-2′-β-fluoro-4′-azidocytidine], for which the EC50 in the data set on HIV-1_74V was 0.00011 ± 1e-05 µM; in the data set with HIV-2CBL-20, 0.025 ± 0.002 nM; with HIV-2ROD, 0.018 ± 0.006 nM; in the data set with HIV-1RF it was 0.03 ± 0.02 nM; with HIV-1WAN T69N, 0.00045 ± 9e-05 µM; with HIV-1 [4] (range over HIV-1 strains, read-out: EC50s on HIV-1) it was 30 to 6920 pM. Besides, the EC50 was 30 to 110 pM in the data set on HIV-1 [4] (wild-type HIV-1IIIB and HIV-1RF, read-out: 50% effective concentration values (EC50)); 18 to 25 pM in the data set with HIV-2; 0.00014 ± 1e-05 µM in [1]; 0.00692 ± 0.00059 µM with HIV-1KM018 (setting [7]); 0.00034 ± 4e-05 µM in the data set on HIV-1TC-1; 0.0808 ± 0.00814 µM in the data set with FNCP-21 HIV-1 IIIB. Besides, the EC50 came to 0.00011 ± 2e-05 µM with Wild type HIV-1IIIB, 0.0255 ± 0.00186 µM in the data set with 3TCP-21 HIV-1IIIB and 0.00036 ± 3e-05 µM in [3]. The “suppressive effects fold stronger than 3TC” value in the data set on HIV-1WAN T69N (clinical strains in PBMC, second value of the sentence) worked out at 192 fold; with HIV-1KM018 (clinical strains in PBMC, first value of the sentence), 49 fold. In the data set on HIV-1 [5], the “EC50s against HIV-1 in presence of human serum” value is recorded as “unaffected”. For the same molecule, the “FC, fold change, the ratio of EC50(Mut)/EC50(WT)” value stood at 735 in the data set on FNCP-21 HIV-1 IIIB, 1 in the data set on Wild type HIV-1IIIB and 232 in the data set on 3TCP-21 HIV-1IIIB. Besides, the inhibition at 0.0005 µM with HIV-1IIIB [2] (Human immunodeficiency virus 1, HIV-1IIIB infected C8166, 500 pM FNC) was > 99%. For the same molecule, the “levels of ssDNA (strong-stop minus-strand DNA)” value with HIV-1IIIB [6] (1 h, 2 h and 4 h post-infection) is recorded as “significantly reduced”. For the same molecule, the “late RT level (full-length double-stranded DNA)” value with HIV-1IIIB [6] (4 h, 6 h and 8 h post-infection, P<0.01) is “significantly reduced”. The CC50s is 2380 ± 50 µM with C8166 cells (C8166 cells, MTT, 3 days) and 3.07 ± 0.23 µM in the data set on PBMC (PBMC, MTT, 7 days).
